In brackets after ≈: the same amount, converted by molar mass.
Legend:
[1] = tested on: M. tuberculosis MDR (resistant to isoniazid and rifampicin); assay: microbe, parasite or virus in culture; type: cell-based; conditions: Mycobacterium tuberculosis, 504 h, read-out: MIC M. tb MDR
[2] = tested on: M. tuberculosis XDR (resistant to isoniazid, rifampicin, amikacin and moxifloxacin); assay: microbe, parasite or virus in culture; type: cell-based; conditions: Mycobacterium tuberculosis, 504 h, read-out: MIC M. tb XDR

## C[C@]1(COc2ccc(NC(=O)Nc3ccc(F)cc3)cc2)Cn2cc([N+](=O)[O-])nc2O1 [IIA1, (R)-1-(4-fluorophenyl)-3-{4-(2-methyl-6-nitro-2,3-dihydroimidazo[2,1-b]oxazol-2-yl)methoxyphenyl}urea]
[1]
  MIC: 2 µg/mL (≈ 4.68 µM)
[2]
  MIC: 2 µg/mL (≈ 4.68 µM)

## CCc1ccc(NC(=O)Nc2ccc(OC[C@@]3(C)Cn4cc([N+](=O)[O-])nc4O3)cc2)cc1 [IIA2, (R)-1-(4-ethylphenyl)-3-{4-(2-methyl-6-nitro-2,3-dihydroimidazo[2,1-b]oxazol-2-yl)methoxyphenyl}urea]
[1]
  MIC: 0.5 µg/mL (≈ 1.14 µM)
[2]
  MIC: 0.5 µg/mL (≈ 1.14 µM)

## C[C@]1(COc2ccc(NC(=O)Nc3ccc(C(F)(F)F)cc3)cc2)Cn2cc([N+](=O)[O-])nc2O1 [IIA3, (R)-1-(4-trifluoromethylphenyl)-3-{4-(2-methyl-6-nitro-2,3-dihydroimidazo[2,1-b]oxazol-2-yl)methoxyphenyl}urea]
[1]
  MIC: 0.12 µg/mL (≈ 0.251 µM)
[2]
  MIC: 0.12 µg/mL (≈ 0.251 µM)

## Cc1ccc(NC(=O)Nc2ccc(OC[C@@]3(C)Cn4cc([N+](=O)[O-])nc4O3)cc2)cc1 [IIA4, (R)-1-(4-methylphenyl)-3-{4-(2-methyl-6-nitro-2,3-dihydroimidazo[2,1-b]oxazol-2-yl)methoxyphenyl}urea]
[1]
  MIC: 0.06 µg/mL (≈ 0.142 µM)
[2]
  MIC: 0.06 µg/mL (≈ 0.142 µM)

## COc1ccc(NC(=O)Nc2ccc(OC[C@@]3(C)Cn4cc([N+](=O)[O-])nc4O3)cc2)cc1 [IIA5, (R)-1-(4-methoxyphenyl)-3-{4-(2-methyl-6-nitro-2,3-dihydroimidazo[2,1-b]oxazol-2-yl)methoxyphenyl}urea]
[1]
  MIC: 1 µg/mL (≈ 2.28 µM)
[2]
  MIC: 1 µg/mL (≈ 2.28 µM)

## C[C@]1(COc2ccc(NC(=O)Nc3ccc(OC(F)(F)F)cc3)cc2)Cn2cc([N+](=O)[O-])nc2O1 [IIA6, (R)-1-(4-trifluoromethoxyphenyl)-3-{4-(2-methyl-6-nitro-2,3-dihydroimidazo[2,1-b]oxazol-2-yl)methoxyphenyl}urea]
[1]
  MIC: 0.5 µg/mL (≈ 1.01 µM)
[2]
  MIC: 0.5 µg/mL (≈ 1.01 µM)

## COc1ccc(NC(=S)Nc2ccc(OC[C@@]3(C)Cn4cc([N+](=O)[O-])nc4O3)cc2)cc1 [IIA7, (R)-1-(4-methoxyphenyl)-3-{4-(2-methyl-6-nitro-2,3-dihydroimidazo[2,1-b]oxazol-2-yl)methoxyphenyl}thiourea]
[1]
  MIC: 2 µg/mL (≈ 4.39 µM)
[2]
  MIC: 2 µg/mL (≈ 4.39 µM)

## C[C@]1(COc2ccc(NC(=S)Nc3ccc(OC(F)(F)F)cc3)cc2)Cn2cc([N+](=O)[O-])nc2O1 [IIA8, (R)-1-(4-trifluoromethoxyphenyl)-3-{4-(2-methyl-6-nitro-2,3-dihydroimidazo[2,1-b]oxazol-2-yl)methoxyphenyl}thiourea]
[1]
  MIC: 2 µg/mL (≈ 3.93 µM)
[2]
  MIC: 2 µg/mL (≈ 3.93 µM)

## C[C@]1(COc2ccc(NC(=S)Nc3ccc(F)cc3)cc2)Cn2cc([N+](=O)[O-])nc2O1 [IIA9, (R)-1-(4-fluorophenyl)-3-{4-(2-methyl-6-nitro-2,3-dihydroimidazo[2,1-b]oxazol-2-yl)methoxyphenyl}thiourea]
[1]
  MIC: 4 µg/mL (≈ 9.02 µM)
[2]
  MIC: 4 µg/mL (≈ 9.02 µM)

## C[C@]1(COc2ccc(NC(=S)Nc3ccc(C(F)(F)F)cc3)cc2)Cn2cc([N+](=O)[O-])nc2O1 [IIA10, (R)-1-(4-trifluoromethylphenyl)-3-{4-(2-methyl-6-nitro-2,3-dihydroimidazo[2,1-b]oxazol-2-yl)methoxyphenyl}thiourea]
[1]
  MIC: 4 µg/mL (≈ 8.11 µM)
[2]
  MIC: 4 µg/mL (≈ 8.11 µM)

## Cc1ccc(NS(=O)(=O)c2ccc(OC[C@@]3(C)Cn4cc([N+](=O)[O-])nc4O3)cc2)cc1 [IIB1, (R)-4-{(2-methyl-6-nitro-2,3-dihydroimidazo[2,1-b]oxazol-2-yl)methoxy}-N-(p-tolyl)benzenesulfonamide]
[1]
  MIC: 2 µg/mL (≈ 4.5 µM)
[2]
  MIC: 2 µg/mL (≈ 4.5 µM)

## C[C@]1(COc2ccc(S(=O)(=O)Nc3ccc(OC(F)(F)F)cc3)cc2)Cn2cc([N+](=O)[O-])nc2O1 [IIB2, (R)-4-{(2-methyl-6-nitro-2,3-dihydroimidazo[2,1-b]oxazol-2-yl)methoxy}-N-(4 trifluoromethoxyphenyl)benzenesulfonamide]
[1]
  MIC: 2 µg/mL (≈ 3.89 µM)
[2]
  MIC: 2 µg/mL (≈ 3.89 µM)

## C[C@]1(COc2ccc(S(=O)(=O)Nc3ccc(C(F)(F)F)cc3)cc2)Cn2cc([N+](=O)[O-])nc2O1 [IIB3, (R)-4-{(2-methyl-6-nitro-2,3-dihydroimidazo[2,1-b]oxazol-2-yl)methoxy}-N-(4 trifluoromethylphenyl)benzenesulfonamide]
[1]
  MIC: 2 µg/mL (≈ 4.01 µM)
[2]
  MIC: 2 µg/mL (≈ 4.01 µM)

## CN(c1ccccc1)S(=O)(=O)c1ccc(OC[C@@]2(C)Cn3cc([N+](=O)[O-])nc3O2)cc1 [IIB4, (R)—N-methyl-4-{(2-methyl-6-nitro-2,3-dihydroimidazo[2,1-b]oxazol-2-yl)methoxy}-N-phenylbenzenesulfonamide]
[1]
  MIC: 4 µg/mL (≈ 9 µM)
[2]
  MIC: 4 µg/mL (≈ 9 µM)

## Cc1ccc(N(C)S(=O)(=O)c2ccc(OC[C@@]3(C)Cn4cc([N+](=O)[O-])nc4O3)cc2)cc1 [IIB5, (R)—N-methyl-4-{(2-methyl-6-nitro-2,3-dihydroimidazo[2,1-b]oxazol-2-yl)methoxy}-N-(p-tolyl)benzenesulfonamide]
[1]
  MIC: 4 µg/mL (≈ 8.72 µM)
[2]
  MIC: 4 µg/mL (≈ 8.72 µM)

## CN(c1ccc(C(F)(F)F)cc1)S(=O)(=O)c1ccc(OC[C@@]2(C)Cn3cc([N+](=O)[O-])nc3O2)cc1 [IIB6, (R)—N-methyl-4-{(2-methyl-6-nitro-2,3-dihydroimidazo[2,1-b]oxazol-2-yl)methoxy}-N-(p-trifluoromethylphenyl)benzenesulfonamide]
[1]
  MIC: 1 µg/mL (≈ 1.95 µM)
[2]
  MIC: 1 µg/mL (≈ 1.95 µM)

## C[C@]1(COc2ccc(S(=O)(=O)N3CCN(c4ccccc4)CC3)cc2)Cn2cc([N+](=O)[O-])nc2O1 [IIC1, (R)-2-{4-(4-phenylpiperazin-1-yl)sulfonylphenoxymethyl}-2,3-dihydro-2-methyl-6-nitroimidazo[2,1-b]oxazole]
[1]
  MIC: 1 µg/mL (≈ 2 µM)
[2]
  MIC: 1 µg/mL (≈ 2 µM)

## C[C@]1(COc2ccc(S(=O)(=O)N3CCN(c4ccc(F)cc4)CC3)cc2)Cn2cc([N+](=O)[O-])nc2O1 [IIC2, (R)-2-{4-[4-(4-fluorophenyl)piperazin-1-yl]sulfonylphenoxymethyl}-2,3-dihydro-2-methyl-6-nitroimidazo[2,1-b]oxazole]
[1]
  MIC: 2 µg/mL (≈ 3.86 µM)
[2]
  MIC: 2 µg/mL (≈ 3.86 µM)

## C[C@]1(COc2ccc(S(=O)(=O)N3CCN(c4cccc(Cl)c4)CC3)cc2)Cn2cc([N+](=O)[O-])nc2O1 [IIC3, (R)-2-{4-[4-(3-chlorophenyl)piperazin-1-yl]sulfonylphenoxymethyl}-2,3-dihydro-2-methyl-6-nitroimidazo[2,1-b]oxazole]
[1]
  MIC: 8 µg/mL (≈ 15 µM)
[2]
  MIC: 8 µg/mL (≈ 15 µM)

## C[C@]1(COc2ccc(S(=O)(=O)N3CCN(c4ccc(OC(F)(F)F)cc4)CC3)cc2)Cn2cc([N+](=O)[O-])nc2O1 [IIC4, (R)-2-{4-[4-(4-trifluoromethoxyphenyl)piperazin-1-yl]sulfonylphenoxymethyl}-2,3-dihydro-2-methyl-6-nitroimidazo[2,1-b]oxazole]
[1]
  MIC: 2 µg/mL (≈ 3.43 µM)
[2]
  MIC: 2 µg/mL (≈ 3.43 µM)

## CCOC(=O)N1CCN(S(=O)(=O)c2ccc(OC[C@@]3(C)Cn4cc([N+](=O)[O-])nc4O3)cc2)CC1 [IIC5, (R)-ethyl-{4-[4-(2-methyl-6-nitro-2,3-dihydroimidazo[2,1-b]oxazol-2yl)methoxyphenyl]sulfonyl}piperazine-1-carboxylate]
[1]
  MIC: 2 µg/mL (≈ 4.04 µM)
[2]
  MIC: 2 µg/mL (≈ 4.04 µM)

## C[C@]1(COc2ccc(S(=O)(=O)N3CCN(C(=O)c4ccccc4)CC3)cc2)Cn2cc([N+](=O)[O-])nc2O1 [IIC6, (R)-{4-[4-(2-methyl-6-nitro-2,3-dihydroimidazo[2,1-b]oxazol-2yl)methoxyphenyl]sulfonyl}piperazine-1-yl(phenyl)methanone]
[1]
  MIC: 2 µg/mL (≈ 3.79 µM)
[2]
  MIC: 2 µg/mL (≈ 3.79 µM)

## C[C@]1(COc2ccc(S(=O)(=O)N3CCCCC3)cc2)Cn2cc([N+](=O)[O-])nc2O1 [IIC7, (R)-2-{4-(piperidin-1-ylsulfonyl)phenoxymethyl}-2,3-dihydro-2-methyl-6-nitroimidazo[2,1-b]oxazole]
[1]
  MIC: 1 µg/mL (≈ 2.37 µM)
[2]
  MIC: 1 µg/mL (≈ 2.37 µM)

## C[C@]1(COc2ccc(S(=O)(=O)N3CCC(c4ccccc4)CC3)cc2)Cn2cc([N+](=O)[O-])nc2O1 [IIC8, (R)-2-{4-[(4-phenylpiperidin-1-yl)sulfonyl]phenoxymethyl}-2,3-dihydro-2-methyl-6-nitroimidazo[2,1-b]oxazole]
[1]
  MIC: 0.5 µg/mL (≈ 1 µM)
[2]
  MIC: 0.5 µg/mL (≈ 1 µM)

## C[C@]1(COc2ccc(S(=O)(=O)N3CCCC3)cc2)Cn2cc([N+](=O)[O-])nc2O1 [IIC9, (R)-2-{4-(pyrrolidin-1-ylsulfonyl)phenoxymethyl}-2,3-dihydro-2-methyl-6-nitroimidazo[2,1-b]oxazole]
[1]
  MIC: 1 µg/mL (≈ 2.45 µM)
[2]
  MIC: 1 µg/mL (≈ 2.45 µM)

## C[C@]1(COc2ccc(S(=O)(=O)N3CCOCC3)cc2)Cn2cc([N+](=O)[O-])nc2O1 [IIC10, (R)-2-{4-(morpholinsulfonyl)phenoxymethyl}-2,3-dihydro-2-methyl-6-nitroimidazo[2,1-b]oxazole]
[1]
  MIC: 0.5 µg/mL (≈ 1.18 µM)
[2]
  MIC: 0.5 µg/mL (≈ 1.18 µM)

From patent US9845330B2, “6-nitro-2,3-dihydroimidazo[2,1-b]oxazoles and a process for the preparation thereof” (priority 2013, dated 2017)
